Reference: patent US20080009418A1, “Selective Inhibitors” (Alchemia LTD., priority 2004, published 2008)

Experiments:
[1] = target: T1, Human melanin-concentrating hormone (MCH1) (Homo sapiens, UniProt Q99705); test: Radioligand binding, human melanin-concentrating hormone MCH1 membranes, FlashPlate, [125I]-S36057; conditions: compound at 10 μM; [125I]-S36057
T1 construct: purchased Perkin Elmer Biosignal
Method in brief: (§1)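 Cloned human receptor membranes were coated onto FlashPlate wells and incubated with radioligand and compound (added from a 0.5 mM DMSO daughter plate) for 1 hour at room temperature in the dark. Scintillation counting gave percent inhibition, with DMSO defining total and reference ligand defining non-specific binding.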

Mouse urotensin (mUR2) = target: T2, Mouse urotensin (mUR2) (Mus musculus, UniProt Q8VIH9); test: Radioligand binding, mouse urotensin mUR2 membranes, FlashPlate, [125I]-Urotensin II; conditions: compound at 10 μM; [125I]-Urotensin II
T2 construct: purchased Perkin Elmer Biosignal
T2 sequence (Q8VIH9 1-385): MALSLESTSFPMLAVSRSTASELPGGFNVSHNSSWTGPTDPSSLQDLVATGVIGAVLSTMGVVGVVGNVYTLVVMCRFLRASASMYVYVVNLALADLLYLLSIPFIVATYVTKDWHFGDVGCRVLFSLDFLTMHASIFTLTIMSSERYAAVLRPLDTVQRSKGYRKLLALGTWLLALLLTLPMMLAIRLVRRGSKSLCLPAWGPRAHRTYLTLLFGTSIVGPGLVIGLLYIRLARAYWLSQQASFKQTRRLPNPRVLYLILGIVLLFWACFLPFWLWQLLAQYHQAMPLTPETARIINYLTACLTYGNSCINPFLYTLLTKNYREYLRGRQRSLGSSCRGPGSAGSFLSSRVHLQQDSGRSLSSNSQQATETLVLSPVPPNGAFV
Method in brief: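 Cloned mouse urotensin (mUR2) receptor membranes from Perkin Elmer Biosignal were immobilized in FlashPlate microplates using a proprietary coating. Each well got 19.5 μl buffer, then 0.5 μl of DMSO, reference ligand, or compound. Adding 5 μl of [125I]-Urotensin II, diluted to 5× final concentration in binding buffer, started binding. Plates were sealed with TopSeal-A and incubated 1 hour at room temperature in the dark. Wells were counted for 30 seconds each on a TopCount after a 60-second delay, and percentage inhibition was calculated.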

Human Melanocortin (MC4) = target: T3, Human Melanocortin (MC4) (Homo sapiens, UniProt P32245); test: Radioligand binding, human melanocortin MC4 membranes, FlashPlate, [125I]-NDP-αMSH; conditions: compound at 10 μM; [125I]-NDP-αMSH
T3 construct: purchased Perkin Elmer Biosignal
Method in brief: as §1

Human δ-opioid (DOP) = target: T4, Human δ-opioid (DOP) (Homo sapiens, UniProt P41143); test: Radioligand binding, human δ-opioid (DOP) membranes, FlashPlate, [3H]-Bremazocine; conditions: compound at 10 μM; [3H]-Bremazocine
T4 construct: purchased Perkin Elmer Biosignal
Method in brief: as §1

Human neurokinin (NK1) = target: T5, Human neurokinin (NK1) (Homo sapiens, UniProt P25103); test: Radioligand binding, human neurokinin NK1 membranes, filtration, [125I]-Substance P; conditions: compound at 10 μM; [125I]-Substance P
T5 construct: purchased Perkin Elmer Biosignal
Method in brief: (§2)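 Filtration binding on cloned human receptor membranes (1 Unit/well), [125I]-Substance P for NK1 and [3H]-Diprenorphine for KOP, 1 h at room temperature. Filters PEI-presoaked, washed with cold 50 mM Tris-HCl pH 7.4, counted by scintillation; percent inhibition calculated, reference ligand defining non-specific binding.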

Human Melanocortin (MC3) = target: T6, Human Melanocortin (MC3) (Homo sapiens, UniProt P41968); test: Radioligand binding, human melanocortin MC3 membranes, FlashPlate, [125I]-NDP-αMSH; conditions: compound at 10 μM; [125I]-NDP-αMSH
T6 construct: purchased Perkin Elmer Biosignal
Method in brief: as §1

Human opioid (ORL1) = target: T7, Human opioid (ORL1) (Homo sapiens, UniProt P41146); test: Radioligand binding, human opioid ORL1 membranes, FlashPlate, [125I]-Nociceptin; conditions: compound at 10 μM; [125I]-Nociceptin
T7 construct: purchased Perkin Elmer Biosignal
Method in brief: as §1

Human melanocortin (MC5) = target: T8, Human melanocortin (MC5) (Homo sapiens, UniProt P33032); test: Radioligand binding, human melanocortin MC5 membranes, FlashPlate, [125I]-NDP-αMSH; conditions: compound at 10 μM; [125I]-NDP-αMSH
T8 construct: purchased Perkin Elmer Biosignal
Method in brief: as §1

[2] = target: T9, Human neuropeptide Y (NPY-Y1) (Homo sapiens, UniProt P25929); test: Radioligand binding, human neuropeptide Y NPY-Y1 membranes, FlashPlate, [125I]-PYY; conditions: compound at 10 μM; [125I]-PYY
T9 construct: purchased Perkin Elmer Biosignal
T9 sequence (P25929 1-384): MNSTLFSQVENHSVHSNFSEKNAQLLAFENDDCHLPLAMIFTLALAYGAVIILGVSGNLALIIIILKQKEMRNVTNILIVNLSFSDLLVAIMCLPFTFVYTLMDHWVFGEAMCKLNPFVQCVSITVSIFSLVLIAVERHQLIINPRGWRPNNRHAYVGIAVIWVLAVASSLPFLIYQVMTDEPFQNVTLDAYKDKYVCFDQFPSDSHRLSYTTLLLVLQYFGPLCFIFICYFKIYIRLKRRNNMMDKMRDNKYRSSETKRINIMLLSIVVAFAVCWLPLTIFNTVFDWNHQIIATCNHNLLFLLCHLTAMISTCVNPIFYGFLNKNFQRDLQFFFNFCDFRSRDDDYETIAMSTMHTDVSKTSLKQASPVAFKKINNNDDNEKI
Method in brief: as §1

Human κ-Opioid (KOP) = target: T10, Human κ-Opioid (KOP) (Homo sapiens, UniProt P41145); test: Radioligand binding, human κ-opioid (KOP) membranes, filtration, [3H]-Diprenorphine; conditions: compound at 10 μM; [3H]-Diprenorphine
T10 construct: purchased Perkin Elmer Biosignal
Method in brief: as §2

Human μ-opioid (MOP) = target: T11, Human μ-opioid (MOP) (Homo sapiens, UniProt P35372); test: Radioligand binding, human μ-opioid (MOP) membranes, FlashPlate, [3H]-Naloxone; conditions: compound at 10 μM; [3H]-Naloxone
T11 construct: purchased Perkin Elmer Biosignal
Method in brief: as §1

T3 sequence (P32245 whole entry): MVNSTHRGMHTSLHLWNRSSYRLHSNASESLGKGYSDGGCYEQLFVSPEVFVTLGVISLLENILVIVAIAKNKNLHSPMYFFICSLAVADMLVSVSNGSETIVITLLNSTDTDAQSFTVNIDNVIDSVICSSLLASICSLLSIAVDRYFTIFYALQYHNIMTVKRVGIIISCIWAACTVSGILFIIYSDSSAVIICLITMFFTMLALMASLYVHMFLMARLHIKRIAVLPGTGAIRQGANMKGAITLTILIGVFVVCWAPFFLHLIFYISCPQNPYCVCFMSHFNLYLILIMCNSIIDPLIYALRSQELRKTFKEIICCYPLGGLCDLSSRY
T11 sequence (P35372 whole entry): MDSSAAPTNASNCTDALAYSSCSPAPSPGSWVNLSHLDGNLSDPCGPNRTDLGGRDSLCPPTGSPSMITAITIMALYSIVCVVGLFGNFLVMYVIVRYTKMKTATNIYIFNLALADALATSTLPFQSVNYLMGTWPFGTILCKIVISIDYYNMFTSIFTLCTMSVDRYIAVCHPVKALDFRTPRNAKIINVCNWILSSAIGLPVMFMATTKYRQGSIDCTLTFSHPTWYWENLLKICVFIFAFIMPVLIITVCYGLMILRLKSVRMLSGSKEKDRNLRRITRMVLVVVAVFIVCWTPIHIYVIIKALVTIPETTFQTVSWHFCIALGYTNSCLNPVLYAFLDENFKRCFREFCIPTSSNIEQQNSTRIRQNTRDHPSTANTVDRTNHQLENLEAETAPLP
T6 sequence (P41968 whole entry): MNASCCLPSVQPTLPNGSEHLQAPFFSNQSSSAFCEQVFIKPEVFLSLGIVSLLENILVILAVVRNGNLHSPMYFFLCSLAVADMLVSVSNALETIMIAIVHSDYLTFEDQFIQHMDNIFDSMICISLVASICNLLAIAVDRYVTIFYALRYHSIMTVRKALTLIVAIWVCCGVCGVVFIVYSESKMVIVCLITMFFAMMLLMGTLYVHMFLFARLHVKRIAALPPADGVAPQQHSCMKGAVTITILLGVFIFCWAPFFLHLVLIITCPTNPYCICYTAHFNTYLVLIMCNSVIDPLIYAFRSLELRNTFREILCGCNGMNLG
T10 sequence (P41145 whole entry): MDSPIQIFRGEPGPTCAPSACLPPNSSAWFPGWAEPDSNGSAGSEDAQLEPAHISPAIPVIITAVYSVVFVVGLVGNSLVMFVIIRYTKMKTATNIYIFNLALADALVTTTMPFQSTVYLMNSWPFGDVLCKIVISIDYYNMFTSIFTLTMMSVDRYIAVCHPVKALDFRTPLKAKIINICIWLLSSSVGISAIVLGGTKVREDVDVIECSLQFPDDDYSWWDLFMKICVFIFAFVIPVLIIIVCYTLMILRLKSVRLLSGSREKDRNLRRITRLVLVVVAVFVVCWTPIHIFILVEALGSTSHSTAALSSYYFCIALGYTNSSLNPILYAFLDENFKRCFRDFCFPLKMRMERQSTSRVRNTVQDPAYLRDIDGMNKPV
T1 sequence (Q99705 whole entry): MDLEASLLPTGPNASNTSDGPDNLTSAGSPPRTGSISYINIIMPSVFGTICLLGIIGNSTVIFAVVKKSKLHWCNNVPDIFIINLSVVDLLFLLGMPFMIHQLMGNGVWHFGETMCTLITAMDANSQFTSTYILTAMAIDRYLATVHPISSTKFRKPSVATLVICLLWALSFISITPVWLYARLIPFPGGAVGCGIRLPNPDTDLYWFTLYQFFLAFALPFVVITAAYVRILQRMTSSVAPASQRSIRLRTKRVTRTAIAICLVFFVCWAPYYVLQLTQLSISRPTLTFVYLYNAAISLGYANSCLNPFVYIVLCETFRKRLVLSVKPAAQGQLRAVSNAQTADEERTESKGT
T5 sequence (P25103 whole entry): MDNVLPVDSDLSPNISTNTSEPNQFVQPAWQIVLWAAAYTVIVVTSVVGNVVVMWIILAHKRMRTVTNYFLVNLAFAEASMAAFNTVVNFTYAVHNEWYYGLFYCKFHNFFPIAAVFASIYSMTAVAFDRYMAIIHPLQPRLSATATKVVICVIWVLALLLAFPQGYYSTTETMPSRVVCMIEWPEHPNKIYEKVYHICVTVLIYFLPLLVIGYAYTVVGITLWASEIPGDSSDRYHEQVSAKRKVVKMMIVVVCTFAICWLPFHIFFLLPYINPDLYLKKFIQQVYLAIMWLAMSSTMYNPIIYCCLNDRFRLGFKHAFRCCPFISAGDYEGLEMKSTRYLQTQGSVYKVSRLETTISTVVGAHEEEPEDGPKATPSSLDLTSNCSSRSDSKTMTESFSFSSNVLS
T7 sequence (P41146 whole entry): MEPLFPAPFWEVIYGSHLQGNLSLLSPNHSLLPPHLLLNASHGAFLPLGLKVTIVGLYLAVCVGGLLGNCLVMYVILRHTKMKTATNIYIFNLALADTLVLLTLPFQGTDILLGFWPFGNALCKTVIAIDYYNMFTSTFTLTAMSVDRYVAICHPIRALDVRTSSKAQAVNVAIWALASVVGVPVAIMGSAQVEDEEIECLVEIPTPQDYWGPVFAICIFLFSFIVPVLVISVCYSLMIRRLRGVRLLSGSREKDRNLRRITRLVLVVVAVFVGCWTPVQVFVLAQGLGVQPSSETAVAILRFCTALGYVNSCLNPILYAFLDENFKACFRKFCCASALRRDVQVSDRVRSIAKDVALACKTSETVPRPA
T8 sequence (P33032 whole entry): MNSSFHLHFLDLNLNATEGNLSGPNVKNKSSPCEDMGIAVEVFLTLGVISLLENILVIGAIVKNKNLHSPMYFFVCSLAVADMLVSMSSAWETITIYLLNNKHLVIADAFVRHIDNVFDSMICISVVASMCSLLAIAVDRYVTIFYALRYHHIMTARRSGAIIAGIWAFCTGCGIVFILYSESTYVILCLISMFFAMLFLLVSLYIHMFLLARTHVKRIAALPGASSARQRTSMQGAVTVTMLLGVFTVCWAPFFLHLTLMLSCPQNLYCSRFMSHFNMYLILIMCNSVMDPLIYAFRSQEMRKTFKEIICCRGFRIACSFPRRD
T4 sequence (P41143 whole entry): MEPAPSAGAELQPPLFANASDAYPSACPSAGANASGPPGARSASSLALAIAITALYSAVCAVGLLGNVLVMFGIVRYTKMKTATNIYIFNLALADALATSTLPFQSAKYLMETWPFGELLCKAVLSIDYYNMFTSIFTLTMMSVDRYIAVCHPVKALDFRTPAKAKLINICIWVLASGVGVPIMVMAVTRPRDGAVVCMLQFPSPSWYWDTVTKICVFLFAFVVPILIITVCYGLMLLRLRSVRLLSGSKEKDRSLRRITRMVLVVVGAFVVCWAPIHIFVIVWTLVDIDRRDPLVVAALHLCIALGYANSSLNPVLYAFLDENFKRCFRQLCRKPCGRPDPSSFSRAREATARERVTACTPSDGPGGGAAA

Row | Structure (SMILES) | A6: inhibition of radioligand binding, human melanin-concentrating hormone (MCH1) [1] | A11: inhibition of radioligand binding, mouse urotensin (mUR2) (Mouse urotensin (mUR2)) | A4: inhibition of radioligand binding, human melanocortin (MC4) (Human Melanocortin (MC4)) | A1: inhibition of radioligand binding, human δ-opioid (DOP) (Human δ-opioid (DOP)) | A8: inhibition of radioligand binding, human neurokinin (NK1) (Human neurokinin (NK1)) | A3: inhibition of radioligand binding, human melanocortin (MC3) (Human Melanocortin (MC3)) | A10: inhibition of radioligand binding, human opioid (ORL1) (Human opioid (ORL1)) | A5: inhibition of radioligand binding, human melanocortin (MC5) (Human melanocortin (MC5)) | A9: inhibition of radioligand binding, human neuropeptide Y (NPY-Y1) [2] | A2: inhibition of radioligand binding, human κ-opioid (KOP) (Human κ-Opioid (KOP)) | A7: inhibition of radioligand binding, human μ-opioid (MOP) (Human μ-opioid (MOP)) | other results
1 | NCCC(=O)NC1C(OCc2ccccc2)OC(COCc2ccccc2)C(O)C1OCc1ccc2ccccc2c1 (stereo not drawn) [compound 367] | − (“−” indicates less than 50% inhibition at 10 μM) | − (“−” indicates less than 50% inhibition at 10 μM) | + (“+” indicates greater than 50% inhibition at 10 μM) | − (“−” indicates less than 50% inhibition at 10 μM) | + (“+” indicates greater than 50% inhibition at 10 μM) | − (“−” indicates less than 50% inhibition at 10 μM) | − (“−” indicates less than 50% inhibition at 10 μM) | + (“+” indicates greater than 50% inhibition at 10 μM) | − (“−” indicates less than 50% inhibition at 10 μM) | − (“−” indicates less than 50% inhibition at 10 μM) | − (“−” indicates less than 50% inhibition at 10 μM) | 
2 | COCC1OC(OCc2ccccc2)C(NC(=O)CCN)C(OCc2ccc(Cl)cc2)C1O (stereo not drawn) [compound 178] |  |  |  |  |  |  |  |  |  |  |  | A6 radioligand binding, percentage inhibition [1]: − (“−” indicates less than 50% inhibition at 10 μM); A11 radioligand binding, percentage inhibition (Mouse urotensin (mUR2)): − (“−” indicates less than 50% inhibition at 10 μM); A4 radioligand binding, percentage inhibition (Human Melanocortin (MC4)): − (“−” indicates less than 50% inhibition at 10 μM); A1 radioligand binding, percentage inhibition (Human δ-opioid (DOP)): − (“−” indicates less than 50% inhibition at 10 μM); A8 radioligand binding, percentage inhibition (Human neurokinin (NK1)): + (“+” indicates greater than 50% inhibition at 10 μM); A3 radioligand binding, percentage inhibition (Human Melanocortin (MC3)): − (“−” indicates less than 50% inhibition at 10 μM); A10 radioligand binding, percentage inhibition (Human opioid (ORL1)): − (“−” indicates less than 50% inhibition at 10 μM); A5 radioligand binding, percentage inhibition (Human melanocortin (MC5)): + (“+” indicates greater than 50% inhibition at 10 μM); A9 radioligand binding, percentage inhibition [2]: − (“−” indicates less than 50% inhibition at 10 μM); A2 radioligand binding, percentage inhibition (Human κ-Opioid (KOP)): − (“−” indicates less than 50% inhibition at 10 μM); A7 radioligand binding, percentage inhibition (Human μ-opioid (MOP)): − (“−” indicates less than 50% inhibition at 10 μM)
3 | N=C(N)NCC(=O)NC1COC(COCc2ccc3ccccc3c2)C(O)C1OCc1ccc(Cl)cc1 (stereo not drawn) [compound 540] | − (“−” indicates less than 50% inhibition at 10 μM) | − (“−” indicates less than 50% inhibition at 10 μM) | + (“+” indicates greater than 50% inhibition at 10 μM) | − (“−” indicates less than 50% inhibition at 10 μM) | + (“+” indicates greater than 50% inhibition at 10 μM) | − (“−” indicates less than 50% inhibition at 10 μM) | − (“−” indicates less than 50% inhibition at 10 μM) | − (“−” indicates less than 50% inhibition at 10 μM) | − (“−” indicates less than 50% inhibition at 10 μM) | − (“−” indicates less than 50% inhibition at 10 μM) | − (“−” indicates less than 50% inhibition at 10 μM) | 
